This is an account of results in patent US9139523B2, “5-HT2B receptor antagonists” (Janssen Pharmaceutica, NV, priority 2010, dated 2015).

The target in one data set is T1, 5HT1A (Homo sapiens, UniProt P08908).
T1 construct: expressed in transfected cells; host or cells: HEK293 (membrane fraction)
T1 sequence (P08908 1-422): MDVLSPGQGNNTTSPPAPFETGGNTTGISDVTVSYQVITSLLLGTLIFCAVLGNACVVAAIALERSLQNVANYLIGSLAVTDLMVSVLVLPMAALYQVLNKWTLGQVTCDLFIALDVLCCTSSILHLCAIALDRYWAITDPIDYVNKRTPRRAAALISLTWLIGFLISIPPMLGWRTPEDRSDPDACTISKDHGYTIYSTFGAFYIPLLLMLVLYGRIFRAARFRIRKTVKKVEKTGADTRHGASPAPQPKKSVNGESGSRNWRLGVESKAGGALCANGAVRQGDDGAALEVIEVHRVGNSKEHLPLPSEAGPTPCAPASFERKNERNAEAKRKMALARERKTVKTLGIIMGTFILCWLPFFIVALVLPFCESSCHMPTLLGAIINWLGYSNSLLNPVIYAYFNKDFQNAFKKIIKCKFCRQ
As to the kind of experiment: Competitive radioligand binding, 5HT1A. Conditions: HEK293 membranes, 3H-8-OH-DPAT 0.5 nM; read-out: pIC50 5HT1A (converted). As for the experimental part: (§1) Competitive radioligand binding assays were used to determine the affinity of the test compounds for a particular receptor. Various concentrations of the non-labelled test compound were added to the incubation mixture with the membrane fraction, containing the receptor of interest, and a fixed low concentration (nM) of the radioligand. During the incubation the radioligand bound to the receptor, but this was inhibited by the non-labelled test compound in proportion to its binding affinity and concentration.
(§2) Cell lines were established that stably express the human variant of the receptor under investigation after transfection with the appropriate cDNA (Table 1). Transfected cells were grown under standard culture conditions, and membrane fractions were obtained upon centrifugation and homogenisation of the cells. Optimal membrane dilutions for binding studies were determined and aliquots were stored at −70° C. until use. In a 96-well plate format, the appropriate radioligand was added to the membrane preparation containing the receptor under investigation. Compound solutions were prepared in DMSO, and diluted 100-fold into the multiwell plate to a final test concentration of 10^−9 to 10^−5 M. After incubation with the test compound, the unbound radioligand was removed by filtration on G/F filters with a Filtermate 96. Microscint™ was added to the washed filter plates and the radioactivity bound to the receptor was measured by liquid scintillation counting in a TopCount (Packard). To measure the Non-Specific Binding (NSB), a high concentration of the non-radiolabeled ligand was added to wells containing the membrane fraction and the radioligand.
(§3) Using in house developed software, a best-fit curve was fitted by a minimum sum of squares method to the plot of % inhibition vs. concentration of the test compound. From this, the pIC50 value (inhibitory concentration causing 50% displacement of specific binding) was determined, as well as an estimate of the slope of the plot (Hill coefficient).

The target of another data set is T2, D2L (Homo sapiens, UniProt P14416).
T2 construct: expressed in transfected cells; host or cells: CHO (membrane fraction)
Description: Competitive radioligand binding, D2L. Conditions: CHO membranes, 3H-spiperone 0.2 nM; read-out: pIC50 D2L (converted). The procedure:
as §1, §2, §3

In a further data set the target is T3, Alpha1A (Homo sapiens, UniProt P35348).
T3 construct: expressed in transfected cells; host or cells: CHO (membrane fraction)
T3 sequence (P35348 1-466): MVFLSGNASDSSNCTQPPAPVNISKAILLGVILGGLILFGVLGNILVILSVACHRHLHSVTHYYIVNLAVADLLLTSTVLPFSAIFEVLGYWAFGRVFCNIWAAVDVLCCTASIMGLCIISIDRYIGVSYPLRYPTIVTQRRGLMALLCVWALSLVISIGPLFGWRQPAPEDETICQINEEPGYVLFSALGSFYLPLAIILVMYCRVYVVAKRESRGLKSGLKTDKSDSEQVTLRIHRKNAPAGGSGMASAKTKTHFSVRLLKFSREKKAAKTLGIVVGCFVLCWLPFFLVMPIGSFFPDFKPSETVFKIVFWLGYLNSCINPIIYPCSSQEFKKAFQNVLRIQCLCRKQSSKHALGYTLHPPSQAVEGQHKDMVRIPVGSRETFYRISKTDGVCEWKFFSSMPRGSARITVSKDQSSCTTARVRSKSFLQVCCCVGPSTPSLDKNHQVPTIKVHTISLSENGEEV
As to the kind of experiment: Competitive radioligand binding, Alpha1A. The note with it: CHO membranes, 3H-prazosin 0.25 nM; read-out: pIC50 Alpha1A (converted). The procedure: as §1, §2, §3

A further data set concerns the target T4, 5HT3A/B (Homo sapiens, UniProt O95264+P46098).
T4 construct: expressed in transfected cells; host or cells: HEK293 (membrane fraction)
T4 sequence (P46098 24-478): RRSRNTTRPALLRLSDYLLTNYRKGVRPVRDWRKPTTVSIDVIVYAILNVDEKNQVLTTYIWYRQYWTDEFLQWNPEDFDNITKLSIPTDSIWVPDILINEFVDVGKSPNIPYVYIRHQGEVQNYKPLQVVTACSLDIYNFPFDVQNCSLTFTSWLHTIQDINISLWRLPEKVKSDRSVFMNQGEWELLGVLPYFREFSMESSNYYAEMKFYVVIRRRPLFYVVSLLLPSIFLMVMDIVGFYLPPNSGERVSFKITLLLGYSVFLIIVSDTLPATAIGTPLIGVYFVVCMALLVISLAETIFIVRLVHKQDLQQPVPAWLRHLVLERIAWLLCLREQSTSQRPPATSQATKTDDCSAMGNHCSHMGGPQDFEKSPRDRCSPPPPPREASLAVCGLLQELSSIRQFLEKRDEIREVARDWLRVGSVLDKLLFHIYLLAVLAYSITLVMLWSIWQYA
T4 sequence (O95264 22-441): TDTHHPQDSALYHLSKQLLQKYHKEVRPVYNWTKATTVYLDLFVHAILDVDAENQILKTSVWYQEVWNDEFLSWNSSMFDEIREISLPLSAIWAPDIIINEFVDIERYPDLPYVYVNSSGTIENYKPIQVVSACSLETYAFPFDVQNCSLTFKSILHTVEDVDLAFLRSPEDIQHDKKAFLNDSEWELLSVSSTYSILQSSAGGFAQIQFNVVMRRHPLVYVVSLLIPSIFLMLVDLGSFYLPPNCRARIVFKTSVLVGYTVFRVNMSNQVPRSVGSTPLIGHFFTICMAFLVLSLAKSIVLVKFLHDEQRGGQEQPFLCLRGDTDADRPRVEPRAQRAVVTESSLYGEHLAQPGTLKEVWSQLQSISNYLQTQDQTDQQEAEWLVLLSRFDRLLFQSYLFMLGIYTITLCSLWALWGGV
As to the kind of experiment: Competitive radioligand binding, 5HT3A/B. The note with it: HEK293 membranes, 3H-GR65630 0.5 nM; read-out: pIC50 5HT3A/B (converted). The procedure: as §1, §2, §3

In the next data set the test system is anesthetized guinea-pig. As to the kind of experiment: Cardiovascular effects in the anaesthetized guinea-pig. Conditions: guinea pig, 0.02 mg/kg i.v. over 1 min, 15 min after onset of last vehicle infusion. The class given is in vivo. As for the experimental part: Female guinea-pigs were anesthetized with sodium pentobarbital (66 mg/kg i.p.) followed by a continuous i.v. infusion of 6 mg/h of sodium pentobarbital and prepared for measurements of the surface electrocardiogram (ECG), heart rate and mean arterial blood pressure (see De Clerck et al, Fundam. Clin. Pharm.; 2002; 16: 125-140). Compound (−)-17 was dissolved in 20% hydroxypropyl-cyclodextrin with NaOH, HCl and mannitol in pyrogen-free water and administered intravenously (0.5 ml/kg) in increasing doses (0.16, 0.32, 0.64, 1.25, 2.5 and 5 mg/kg) over a period of 5 min at 15-min intervals. Plasma concentrations of Compound (−)-17 were measured at the end of each infusion. Corresponding volumes of vehicle were administered according to the same protocol in a second group of animals.

T2 sequence (P14416 whole entry): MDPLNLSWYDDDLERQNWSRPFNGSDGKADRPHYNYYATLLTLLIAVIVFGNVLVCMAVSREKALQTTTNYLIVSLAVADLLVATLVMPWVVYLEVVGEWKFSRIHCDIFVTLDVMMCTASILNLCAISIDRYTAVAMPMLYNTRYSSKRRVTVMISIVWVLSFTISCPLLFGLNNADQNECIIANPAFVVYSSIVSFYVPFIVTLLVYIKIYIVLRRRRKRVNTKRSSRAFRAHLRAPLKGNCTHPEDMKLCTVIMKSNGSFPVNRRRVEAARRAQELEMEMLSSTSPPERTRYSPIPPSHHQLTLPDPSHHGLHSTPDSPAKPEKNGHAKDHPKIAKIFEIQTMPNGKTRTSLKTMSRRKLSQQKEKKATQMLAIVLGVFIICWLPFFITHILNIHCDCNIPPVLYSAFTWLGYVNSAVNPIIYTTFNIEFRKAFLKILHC

Consider `COc1cc(N)c(Cl)cc1C(=O)NC1CCN(CCCOc2ccc(F)cc2)CC1OC` (centres unmarked) [Cisapride, reference compound], for which the IC50 was 1950 nM on 5HT1A, 537 nM on D2L, 407 nM on Alpha1A and 1150 nM at 5HT3A/B.

Regarding `CN(CCOc1ccc(NS(C)(=O)=O)cc1)CCc1ccc(NS(C)(=O)=O)cc1` [dofetilide, reference compound], the heart rate result in the data set with anesthetized guinea-pig is given as “decreased”.
